{"source": "patent EP4342890A1", "about": "“PLATFORM AND SCAFFOLD FOR FAP TARGETING AGENTS” (Erasmus University Rotterdam Medical Center, priority 2022, dated 2024)", "key": {"PREP": {"target": "T1, PREP (Homo sapiens, UniProt P48147)", "T1 sequence (P48147 1-710)": "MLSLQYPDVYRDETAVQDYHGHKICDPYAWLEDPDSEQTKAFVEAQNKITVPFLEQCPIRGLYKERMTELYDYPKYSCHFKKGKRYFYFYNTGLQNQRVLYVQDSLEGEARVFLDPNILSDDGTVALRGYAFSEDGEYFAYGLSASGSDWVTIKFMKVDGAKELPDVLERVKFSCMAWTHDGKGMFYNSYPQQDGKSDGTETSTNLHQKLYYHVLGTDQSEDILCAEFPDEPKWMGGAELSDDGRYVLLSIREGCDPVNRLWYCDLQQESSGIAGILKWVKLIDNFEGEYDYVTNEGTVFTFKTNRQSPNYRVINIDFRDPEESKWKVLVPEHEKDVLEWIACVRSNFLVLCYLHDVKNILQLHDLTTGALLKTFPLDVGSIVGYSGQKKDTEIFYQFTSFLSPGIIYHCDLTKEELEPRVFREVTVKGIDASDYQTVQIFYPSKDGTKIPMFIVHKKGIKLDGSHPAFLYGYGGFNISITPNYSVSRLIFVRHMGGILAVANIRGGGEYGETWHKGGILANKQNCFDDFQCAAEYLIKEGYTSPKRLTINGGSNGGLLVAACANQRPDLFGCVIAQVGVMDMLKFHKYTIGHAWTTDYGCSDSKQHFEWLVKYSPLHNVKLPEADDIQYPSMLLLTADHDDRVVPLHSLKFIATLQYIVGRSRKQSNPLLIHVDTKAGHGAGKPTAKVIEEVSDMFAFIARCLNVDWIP", "assay": "In vitro inhibition assay on PREP (Z-GP-AMC substrate)", "assay_type": "biochemical", "settings": "enzymatic assay; 20 µM substrate, 2 nM PREP; unit inferred", "description": "Enzymatic activity of PREP on the Z-GP-AMC substrate was measured at room temperature on a Hidex microplate reader by monitoring the fluorescence at an excitation wavelength of 360 nm and an emission wavelength of 465 nm. The reaction mixture contained 20 µM substrate, 2 nM PREP, assay buffer (50 mM Tris, 100 mM NaCl, 1 mM EDTA, pH 7.4) and tested compound (serial dilution from 10-6 to 10-12) in a total volume of 50 µL."}, "DPP4": {"target": "DPP4 (Homo sapiens, UniProt P27487)", "sequence (P27487 39-766)": "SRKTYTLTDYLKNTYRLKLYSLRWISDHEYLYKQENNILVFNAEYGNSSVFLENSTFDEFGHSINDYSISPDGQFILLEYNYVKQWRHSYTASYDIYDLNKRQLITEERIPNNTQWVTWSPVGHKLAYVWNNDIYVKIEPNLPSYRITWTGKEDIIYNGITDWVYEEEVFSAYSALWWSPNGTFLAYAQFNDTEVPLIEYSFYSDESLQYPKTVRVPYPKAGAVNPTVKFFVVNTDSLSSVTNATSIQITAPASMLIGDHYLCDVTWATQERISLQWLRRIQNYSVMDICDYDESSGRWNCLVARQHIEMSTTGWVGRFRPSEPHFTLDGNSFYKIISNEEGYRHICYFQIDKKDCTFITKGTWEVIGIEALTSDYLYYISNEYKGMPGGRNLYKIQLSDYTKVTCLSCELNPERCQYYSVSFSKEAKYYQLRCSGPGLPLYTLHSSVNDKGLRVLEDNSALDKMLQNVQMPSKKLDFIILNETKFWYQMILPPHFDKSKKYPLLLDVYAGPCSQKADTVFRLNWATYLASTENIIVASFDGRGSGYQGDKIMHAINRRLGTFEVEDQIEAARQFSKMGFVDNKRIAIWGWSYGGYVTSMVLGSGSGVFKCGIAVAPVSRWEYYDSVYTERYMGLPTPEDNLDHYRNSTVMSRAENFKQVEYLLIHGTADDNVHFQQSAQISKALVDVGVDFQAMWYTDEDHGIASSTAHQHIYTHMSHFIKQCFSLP", "assay": "In vitro inhibition assay on DPP4 (Z-GP-pNA substrate)", "assay_type": "biochemical", "settings": "enzymatic assay; 20 µM Z-GP-pNA; unit inferred"}, "FAP": {"target": "T2, FAP (Homo sapiens, UniProt Q12884)", "T2 sequence (Q12884 1-760)": "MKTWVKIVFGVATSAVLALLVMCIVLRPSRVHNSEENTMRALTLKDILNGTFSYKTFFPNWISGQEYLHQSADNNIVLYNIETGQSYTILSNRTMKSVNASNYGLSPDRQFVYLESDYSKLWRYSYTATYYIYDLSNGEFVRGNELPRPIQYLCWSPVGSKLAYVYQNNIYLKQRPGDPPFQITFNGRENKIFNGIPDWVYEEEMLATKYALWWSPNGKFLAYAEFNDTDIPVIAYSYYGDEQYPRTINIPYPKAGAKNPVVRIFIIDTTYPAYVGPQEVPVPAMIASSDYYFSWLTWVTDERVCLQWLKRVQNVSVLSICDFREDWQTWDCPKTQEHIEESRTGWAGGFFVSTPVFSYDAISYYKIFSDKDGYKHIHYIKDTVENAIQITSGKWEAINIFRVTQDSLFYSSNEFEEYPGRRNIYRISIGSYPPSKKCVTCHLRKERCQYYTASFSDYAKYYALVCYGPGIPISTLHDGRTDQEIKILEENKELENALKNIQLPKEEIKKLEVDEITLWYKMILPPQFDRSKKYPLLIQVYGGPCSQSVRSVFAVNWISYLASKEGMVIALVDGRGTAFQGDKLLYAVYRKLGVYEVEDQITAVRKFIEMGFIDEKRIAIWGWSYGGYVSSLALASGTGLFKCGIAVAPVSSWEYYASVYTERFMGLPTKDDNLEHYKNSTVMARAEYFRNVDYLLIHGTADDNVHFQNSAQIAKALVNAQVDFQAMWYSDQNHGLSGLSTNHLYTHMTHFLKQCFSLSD", "assay": "Competitive binding assay against [111In]In-FAPI-46 in HT-1080.hFAP cells", "set-up": "expressed in transfected cells; host or cells: HT-1080.hFAP cells", "settings": "competition with [111In]In-FAPI-46 in HT-1080.hFAP cells, 37 °C, 1 h; unit inferred", "description": "The U-87 MG glioblastoma was cultured at 37 °C and 5% CO2 in Dulbecco's Modified Eagle Medium (DMEM) supplemented with 10 % (v/v) fetal calf serum. HT-1080.hFAP cells were kept in culture in DMEM medium supplemented with fetal bovine serum (10%, FBS) and antibiotic antimycotic (1%, AA) at 37 °C and 5% CO2. For passaging, cells were detached using Trypsin-EDTA 0.05% when reaching 90% confluence and re-seeded at a dilution of 1:4.\nCompetition binding experiments were conducted by incubation of the [^111In]In-FAPI-46 radioligand with increasing concentrations of eFAP compound in HT-1080.hFAP cells at 37 °C for 1 h. Cells were then washed three times with binding buffer and lysed. The cell-associated radioactivity was measured in a γ-counter. The IC50 values were calculated by fitting the data by non-linear regression using GraphPad Prism."}}}
{"smiles": "N#C[C@@H]1CC(F)(F)CN1C(=O)CNC(=O)c1ccnc2c(OCCCNC(=O)CN3CCN(CC(=O)O)CCN(CC(=O)O)CCN(CC(=O)O)CC3)cccc12", "note": "[eFAP-6, (S)-2,2',2\"-(10-(2-((3-((4-((2-(2-Cyano-4,4-difluoropyrrolidin-1-yl)-2-oxoethyl)carbamoyl)quinolin-8-yl)oxy)propyl)amino)-2-oxoethyl)-1,4,7,10-tetraazacyclododecane-1,4,7-triyl)triacetic acid]", "values": [{"measurement": "IC50", "setting": "PREP", "value": "108 ± 42", "unit": "nM"}, {"measurement": "IC50", "setting": "DPP4", "value": "> 10000", "unit": "nM"}, {"measurement": "IC50", "setting": "FAP", "value": 0.66, "unit": "nM"}]}
